In ChEMBL document CHEMBL1125508:
Residue numbers refer to the chain shown, from its start.

Assays:
[1] = target: T1, Dihydrofolate reductase (Escherichia coli) (UniProt P0ABQ4)
T1 sequence (whole entry): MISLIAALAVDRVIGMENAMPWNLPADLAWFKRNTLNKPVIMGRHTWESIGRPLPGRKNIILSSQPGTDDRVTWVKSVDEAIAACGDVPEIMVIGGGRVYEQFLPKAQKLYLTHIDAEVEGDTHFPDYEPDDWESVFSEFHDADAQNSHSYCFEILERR
Description: Dissociation rate constant of compound for wild type Escherichia coli dihydrofolate reductase

[2] = target: T1, Dihydrofolate reductase (Escherichia coli); remark: listed apart in the source
Description: Rate of hydride transfer (E-N) of compound for wild type Escherichia coli dihydrofolate reductase

[3] = system: T2, Dihydrofolate reductase (Escherichia coli), P0ABQ4 [T46A]
T2 sequence (whole entry): T1 sequence (whole entry) with T46A

[4] = system: T3, Dihydrofolate reductase (Escherichia coli), P0ABQ4 [T46S]
T3 sequence (whole entry): T1 sequence (whole entry) with T46S

[5] = system: T4, Dihydrofolate reductase (Escherichia coli), P0ABQ4 [T46N]
T4 sequence (whole entry): T1 sequence (whole entry) with T46N

SMILES | k off [1] [s⁻¹] | Rate of hydride transfer [2] [s⁻¹] | k off [3] [s⁻¹] | k off [4] [s⁻¹] | k off [5] [s⁻¹]
Nc1nc(=O)c2c([nH]1)NCC(CNc1ccc(C(=O)N[C@@H](CCC(=O)O)C(=O)O)cc1)=N2 | 22 | – | – | – | –
Nc1nc(O)c2c(n1)NCC(CNc1ccc(C(=O)N[C@@H](CCC(=O)O)C(=O)O)cc1)N2 (stereo not given in full) | – | 950 | – | – | –
NC(=O)c1ccc[n+]([C@H]2O[C@@H](COP(=O)([O-])OP(=O)(O)OC[C@H]3O[C@@H](n4cnc5c(N)ncnc54)[C@H](OP(=O)(O)O)[C@@H]3O)[C@H](O)[C@@H]2O)c1 | 200 | – | 274 | 230 | 253
NC(=O)c1ccc[n+]([C@@H]2O[C@H](COP(=O)([O-])OP(=O)(O)OC[C@H]3O[C@@H](n4cnc5c(N)ncnc54)[C@H](OP(=O)(O)O)[C@@H]3O)[C@@H](O)[C@H]2O)c1 | 3.5 | – | 28 | 60 | 56
